Data published in patent US10947242B2, “[1,2,4]triazolo[1,5and#8208;A]pyrimidine compounds as PDE2 inhibitors” (Janssen Pharmaceutica NV, priority 2016, dated 2021).
Where two headings read alike, the source gives them in different places.

Columns and labels:
[1] = target: T1, Human recombinant PDE3A (hPDE3A) (Homo sapiens, UniProt Q14432); experiment: In vitro assay PDE3A (SPA, 3H-cAMP hydrolysis); format: biochemical; conditions: for IC50: hPDE3B pIC50, read-out: pIC50 (converted); for Emax: read-out: hPDE3B Emax, read-out: Emax;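 as to all read-outs here: the method names PDE3A and the table heading PDE3B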
T1 construct: purchased Scottish Biomedical; host or cells: Sf9 insect cells
T1 sequence (Q14432 whole entry): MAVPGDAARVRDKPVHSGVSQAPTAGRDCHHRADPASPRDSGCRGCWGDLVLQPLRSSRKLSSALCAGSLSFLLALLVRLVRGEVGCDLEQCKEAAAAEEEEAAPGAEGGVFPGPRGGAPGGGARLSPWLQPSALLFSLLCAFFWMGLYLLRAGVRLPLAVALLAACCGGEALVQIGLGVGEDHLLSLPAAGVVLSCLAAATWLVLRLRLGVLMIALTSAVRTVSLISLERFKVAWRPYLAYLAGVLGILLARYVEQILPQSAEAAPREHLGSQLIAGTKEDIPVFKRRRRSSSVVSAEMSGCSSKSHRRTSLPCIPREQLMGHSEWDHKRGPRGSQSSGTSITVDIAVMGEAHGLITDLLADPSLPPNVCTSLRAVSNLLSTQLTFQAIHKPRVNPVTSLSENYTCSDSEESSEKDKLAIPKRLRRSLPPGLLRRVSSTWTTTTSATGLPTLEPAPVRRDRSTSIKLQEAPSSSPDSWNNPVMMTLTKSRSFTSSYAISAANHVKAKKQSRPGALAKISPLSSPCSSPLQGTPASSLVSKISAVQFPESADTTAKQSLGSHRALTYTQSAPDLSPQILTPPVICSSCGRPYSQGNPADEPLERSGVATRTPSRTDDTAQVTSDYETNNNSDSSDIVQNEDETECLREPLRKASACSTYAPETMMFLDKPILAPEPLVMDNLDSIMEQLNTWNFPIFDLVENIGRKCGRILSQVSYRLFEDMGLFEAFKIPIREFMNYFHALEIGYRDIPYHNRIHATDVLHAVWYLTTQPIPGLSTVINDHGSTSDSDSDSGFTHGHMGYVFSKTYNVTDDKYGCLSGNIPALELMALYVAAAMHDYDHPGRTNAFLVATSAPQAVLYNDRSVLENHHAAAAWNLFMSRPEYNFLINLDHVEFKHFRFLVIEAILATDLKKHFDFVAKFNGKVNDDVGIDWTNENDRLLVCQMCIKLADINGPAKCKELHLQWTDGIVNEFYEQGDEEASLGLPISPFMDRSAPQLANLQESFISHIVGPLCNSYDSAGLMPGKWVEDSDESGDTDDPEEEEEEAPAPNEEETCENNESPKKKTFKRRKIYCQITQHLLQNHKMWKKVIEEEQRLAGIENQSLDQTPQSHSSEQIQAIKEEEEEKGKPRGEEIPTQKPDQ
Procedure, shortened: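 Radiometric SPA measuring [3H]-cAMP hydrolysis (0.4 μM cAMP, 2.4 μCi/ml) over 60 min at room temperature, in Tris pH 7.8 buffer with MgCl2 and EGTA, 1% DMSO. Enzyme: recombinant human brain PDE3A expressed in Sf9 cells, used as partially purified lysate. Counts compared with enzyme-free blanks and vehicle controls.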

[2] = target: T2, Human recombinant PDE2A (hPDE2A) (Homo sapiens, UniProt O00408); experiment: In vitro assay PDE2A (SPA, 3H-cGMP hydrolysis); format: biochemical; conditions: for Emax: read-out: hPDE2A Emax
T2 construct: His tag (inferred from metal chelate purification); made in house; host or cells: Sf9 insect cells (baculovirus)
T2 sequence (O00408 whole entry): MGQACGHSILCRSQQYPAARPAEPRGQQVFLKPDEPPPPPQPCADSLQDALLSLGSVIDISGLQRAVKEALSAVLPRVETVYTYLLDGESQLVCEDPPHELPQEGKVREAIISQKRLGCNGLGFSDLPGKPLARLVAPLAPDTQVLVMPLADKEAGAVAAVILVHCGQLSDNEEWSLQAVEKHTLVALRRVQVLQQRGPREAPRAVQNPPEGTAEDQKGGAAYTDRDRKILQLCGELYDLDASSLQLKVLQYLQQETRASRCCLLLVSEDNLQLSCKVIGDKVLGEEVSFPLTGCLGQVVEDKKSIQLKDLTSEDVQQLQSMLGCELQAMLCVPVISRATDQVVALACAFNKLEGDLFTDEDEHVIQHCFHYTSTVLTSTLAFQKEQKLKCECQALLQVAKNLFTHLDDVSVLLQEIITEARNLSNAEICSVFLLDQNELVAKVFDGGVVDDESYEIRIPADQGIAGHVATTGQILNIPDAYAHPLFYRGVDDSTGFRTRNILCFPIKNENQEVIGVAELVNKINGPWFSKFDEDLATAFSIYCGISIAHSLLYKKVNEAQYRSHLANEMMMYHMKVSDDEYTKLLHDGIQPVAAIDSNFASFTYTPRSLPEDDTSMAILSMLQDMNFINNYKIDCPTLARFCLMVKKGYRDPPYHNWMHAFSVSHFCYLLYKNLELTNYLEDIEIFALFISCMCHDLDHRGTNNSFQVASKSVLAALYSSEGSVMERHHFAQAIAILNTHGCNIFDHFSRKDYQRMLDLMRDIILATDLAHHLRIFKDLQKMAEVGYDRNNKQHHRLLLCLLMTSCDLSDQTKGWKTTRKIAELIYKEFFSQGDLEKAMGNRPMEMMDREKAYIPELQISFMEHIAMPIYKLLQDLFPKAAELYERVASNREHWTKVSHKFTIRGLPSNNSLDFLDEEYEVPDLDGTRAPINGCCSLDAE

PDE2A = target: T3, PDE2A (Rattus norvegicus, UniProt Q01062); experiment: PDE2 occupancy by test compounds, ex-vivo autoradiography with [3H]B-17a; format: in vivo, Male Wistar rats; conditions: 10 mg/kg, percentage receptor occupancy, ex-vivo autoradiography, striatum
T3 construct: Twenty μm-thick striatal sections were cut; from tissue; host or cells: rat brain, striatal sections
T3 sequence (Q01062 1-928): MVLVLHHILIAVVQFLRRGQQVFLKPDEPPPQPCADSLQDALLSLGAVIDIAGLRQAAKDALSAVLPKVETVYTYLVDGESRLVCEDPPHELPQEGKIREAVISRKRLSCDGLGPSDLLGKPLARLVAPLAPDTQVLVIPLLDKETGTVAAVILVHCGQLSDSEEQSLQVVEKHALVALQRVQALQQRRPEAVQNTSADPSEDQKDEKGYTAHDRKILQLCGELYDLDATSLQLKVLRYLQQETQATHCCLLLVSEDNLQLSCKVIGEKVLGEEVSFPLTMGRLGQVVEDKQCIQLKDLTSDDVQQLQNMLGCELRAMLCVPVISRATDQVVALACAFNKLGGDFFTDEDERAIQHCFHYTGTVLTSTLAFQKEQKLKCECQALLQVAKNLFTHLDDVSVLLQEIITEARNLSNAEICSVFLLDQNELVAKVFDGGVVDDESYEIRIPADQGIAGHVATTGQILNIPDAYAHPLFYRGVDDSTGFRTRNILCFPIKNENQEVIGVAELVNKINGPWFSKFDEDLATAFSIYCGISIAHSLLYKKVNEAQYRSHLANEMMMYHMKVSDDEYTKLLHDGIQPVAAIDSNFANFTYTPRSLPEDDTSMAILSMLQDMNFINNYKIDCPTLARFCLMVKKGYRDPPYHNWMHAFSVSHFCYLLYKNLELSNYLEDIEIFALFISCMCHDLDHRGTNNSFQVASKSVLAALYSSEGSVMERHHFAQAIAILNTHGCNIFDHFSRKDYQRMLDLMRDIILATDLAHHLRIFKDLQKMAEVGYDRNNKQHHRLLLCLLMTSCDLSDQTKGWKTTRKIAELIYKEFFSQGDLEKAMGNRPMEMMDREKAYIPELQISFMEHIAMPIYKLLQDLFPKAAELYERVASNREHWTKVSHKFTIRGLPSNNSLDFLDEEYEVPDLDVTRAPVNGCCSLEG

[3] = target: T4, Human recombinant PDE10A (hPDE10A) (Homo sapiens, UniProt Q9Y233); experiment: In vitro assay PDE10A, human clone (SPA, 3H-cAMP hydrolysis); format: biochemical
T4 construct: His tag (inferred from metal chelate purification); made in house; host or cells: Sf9 insect cells (baculovirus)
T4 sequence (Q9Y233 267-1055): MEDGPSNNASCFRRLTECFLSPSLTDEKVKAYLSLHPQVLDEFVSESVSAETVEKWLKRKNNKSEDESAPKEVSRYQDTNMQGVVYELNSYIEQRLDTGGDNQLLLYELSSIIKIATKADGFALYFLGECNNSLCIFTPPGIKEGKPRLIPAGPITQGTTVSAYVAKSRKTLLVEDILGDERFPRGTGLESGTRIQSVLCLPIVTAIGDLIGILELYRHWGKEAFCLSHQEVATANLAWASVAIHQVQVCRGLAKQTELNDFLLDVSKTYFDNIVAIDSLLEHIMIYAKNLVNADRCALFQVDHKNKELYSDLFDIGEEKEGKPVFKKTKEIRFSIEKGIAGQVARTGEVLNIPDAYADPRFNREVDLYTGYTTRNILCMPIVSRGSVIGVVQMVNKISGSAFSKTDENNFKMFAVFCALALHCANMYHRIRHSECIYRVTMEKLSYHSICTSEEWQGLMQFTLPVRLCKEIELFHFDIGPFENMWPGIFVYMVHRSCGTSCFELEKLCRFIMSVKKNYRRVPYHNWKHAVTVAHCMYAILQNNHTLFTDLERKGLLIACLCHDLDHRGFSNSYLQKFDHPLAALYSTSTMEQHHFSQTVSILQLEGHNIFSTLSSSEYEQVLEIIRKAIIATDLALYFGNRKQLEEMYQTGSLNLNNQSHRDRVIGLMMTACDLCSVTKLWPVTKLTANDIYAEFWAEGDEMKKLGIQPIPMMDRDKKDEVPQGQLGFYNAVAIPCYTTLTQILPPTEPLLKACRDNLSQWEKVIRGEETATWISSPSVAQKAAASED
Procedure, shortened: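 Hydrolysis of 3H-cAMP (60 nM cAMP, 0.008 μCi tracer) proceeded for 60 min at room temperature, with the product detected by SPA bead scintillation counting. The enzyme was hPDE10A from baculovirus-infected Sf9 cells in Tris pH 7.8 buffer with MgCl2 and EGTA, and compounds were at 1% DMSO final. Blanks lacked enzyme.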

[4] = hPDE2A pIC50, human recombinant PDE2A, 10 μM cGMP substrate
[5] = human clone (h), default, read-out: hPDE10A2 Emax
[6] = human clone (h), default, read-out: hPDE10A2 pIC50 (converted)
[7] = read-out: hPDE2A pIC50 (converted)
[8] = human clone by default (no (r) mark), read-out: hPDE10A2 or rPDE10A2 Emax
[9] = human clone by default (no (r) mark), read-out: hPDE10A2 or rPDE10A2 pIC50 (converted)
[10] = human recombinant PDE2A, 10 μM cGMP substrate, read-out: hPDE2A pIC50 (converted)

Row | SMILES | IC50 [1] [µM] | Emax [1] [%] | IC50 ([2]; hPDE2A pIC50) [µM] | IC50 [2, 4] [µM] | Emax [2] [%] | receptor occupancy at 10 mg/kg (PDE2A; po, route PO (oral)) [%] | Emax [3, 5] [%] | IC50 [3, 6] [µM] | IC50 [2, 7] [µM] | receptor occupancy at 10 mg/kg (PDE2A; route PO (oral)) [%] | Emax [3, 8] [%] | IC50 [3, 9] [µM] | IC50 [2, 10] [µM] | Emax ([2]; human recombinant PDE2A) [%] | receptor occupancy at 10 mg/kg (PDE2A; sc, route SC (subcutaneous)) [%]
1 | Cc1cc(C(=O)N2CC[C@@H](C)[C@H](c3cc(C)nc4ncnn34)C2)cc(C(F)(F)F)n1 [Compound 4] | 5.75 | 70 | 0.00145 | 0.00145 | 100 | 9 | 99 | 0.024 |  |  |  |  |  |  | 
2 | COc1cccc2c1OCC(C(=O)N1[C@H]3CC[C@H](c4cc(C(F)F)nc5ncnn45)[C@@H]1CC3)=C2 [Compound 296] | 0.794 | 93 |  |  | 99 |  |  |  | 0.000457 | 88 | 100 | 0.12 |  |  | 
3 | Cc1cc(C(=O)N2[C@H]3CC[C@H](c4cc(C(F)F)nc5ncnn45)[C@@H]2CC3)cc(C)c1F [Compound 346] | 6.03 | 68 |  |  | 100 |  |  |  | 0.00525 | 19 | 92 | 0.724 |  |  | 
4 | COc1cc(C(=O)N2CC[C@@H](C)[C@H](c3cc(C(F)F)nc4ncnn34)C2)cc(OC)n1 [Compound 284] | 1.26 | 89 |  |  | 101 | 16 |  |  | 0.0017 |  | 98 | 0.055 |  |  | 
5 | COc1ncc(C(=O)N2CC[C@@H](C)[C@H](c3cc(C(F)F)nc4ncnn34)C2)cc1Cl [Compound 134] | 2.24 | 84 |  |  | 101 | 21 | 100 | 0.158 | 0.00316 |  |  |  | 0.00316 | 101 | 
6 | C[C@@H]1CCN(C(=O)c2ccc(Cl)c(C(F)(F)F)c2)C[C@H]1c1cc(C(F)F)nc2ncnn12 [Compound 169] | 1.78 | 82 |  |  | 98 | 3 | 98 | 0.178 | 0.00372 |  |  |  | 0.00372 | 98 | 
7 | COc1ncc(C(=O)N2CC[C@@H](C)[C@H](c3cc(C(F)F)nc4ncnn34)C2)cc1C1CC1 [Compound 73] | 2.63 | 83 |  |  | 101 | 0 | 98 | 0.219 | 0.00195 |  |  |  | 0.00195 | 101 | 
8 | C[C@@H]1CCN(C(=O)c2ccnc(Cl)c2)C[C@H]1c1cc(C(F)F)nc2ncnn12 [Compound 42] | > 10 | 48 |  |  | 100 | 54 | 95 | 0.316 | 0.00115 |  |  |  | 0.00115 | 100 | 
9 | Cc1cc([C@@H]2CN(C(=O)c3cc(Cl)ncc3C)CC[C@H]2C)n2ncnc2n1 [Compound 18] | 6.46 | 65 |  |  | 100 | 4 | 97 | 0.195 | 0.00468 |  |  |  | 0.00468 | 100 | 
10 | COc1cc(C(=O)N2[C@H]3CC[C@H](c4cc(C(F)F)nc5ncnn45)[C@@H]2CC3)cc(C)n1 [Compound 290] | 6.92 | 53 |  |  | 98 |  |  |  | 0.00589 | -3 | 89 | 1.41 |  |  | 
11 | Cc1cc([C@@H]2CN(C(=O)c3ccc4ncsc4c3)CC[C@H]2C)n2ncnc2n1 [Compound 2a] | 0.776 | 98 | 0.000589 | 0.000589 | 101 |  | 101 | 0.00724 |  |  |  |  |  |  | 70
12 | COc1c(C)cc(C(=O)N2[C@H]3CC[C@H](c4cc(C(F)F)nc5ncnn45)[C@@H]2CC3)cc1C [Compound 292] | 4.68 | 73 |  |  | 100 |  |  |  | 0.00251 | 23 | 94 | 0.724 |  |  | 
13 | C[C@@H]1CCN(C(=O)c2ccc(O)c(C#N)c2)C[C@H]1c1cc(C(F)F)nc2ncnn12 [Compound 231] | 9.12 | 57 |  |  | 97 |  | 100 | 0.0195 | 0.00135 |  | 100 | 0.0195 | 0.00135 | 97 | -13
14 | O=C(c1ccc2ccccc2c1)N1[C@H]2CC[C@H](c3cc(C(F)F)nc4ncnn34)[C@@H]1CC2 [Compound 319] | 1.02 | 95 |  |  | 100 |  |  |  | 0.00112 | 37 | 99 | 0.263 |  |  | 
15 | Cc1cc([C@@H]2CN(C(=O)c3ccc4nccn4c3)CC[C@H]2C)n2ncnc2n1 [Compound 99] | 2.09 | 87 |  |  | 100 | 1 | 100 | 0.00955 | 0.000603 |  |  |  | 0.000603 | 100 | 
16 | Cc1nc2ccc(C(=O)N3[C@H]4CC[C@H](c5cc(C(F)F)nc6ncnn56)[C@@H]3CC4)cc2s1 [Compound 368] | 6.46 | 61 |  |  | 101 |  |  |  | 0.00617 | 11 | 99 | 0.251 |  |  | 
